Assay results from US20090270342A1, “IMMUNOREGULATORY AGENT” (priority 2006, published 2009).

Tested on: cedar- and Japanese cypress-pollen disease
Experiment: Clinical symptom scores in cedar- and Japanese cypress-pollen allergy, double blind test (Experiment 8)
Type: in vivo, human
Procedure: In Experiments 4 to 7, it was confirmed that the production of IgE and cytokines, which involves in allergic symptoms, is suppressed by ingesting lactosucrose. Based on the results, an experiment for investigating the suppressing effect of lactosucrose on the clinical symptoms caused by ceder- and Japanese cypress-pollen was carried out as follows. Volunteers who had been self-diagnosed to have allergic symptoms of nose or eyes at a season of cedar- and Japanese cypress-pollen (February to May) in the past two to three years, were recruited as subjects. An interview about the clinical symptoms of nose and eyes for the past two to three years was carried out to the applied volunteers with referencing a guideline for the diagnosis of pollinosis, “HANA ALLERGY SHINDAN GUIDELINE—TUNENSEI BIEN TO KAFUNSHO—2005 NENDO-BAN (Guideline for the diagnosis of nose allergy—chronic allergic rhinitis and pollinosis 2005 edition)”, edited by the committee for the guideline for the diagnosis of nose allergy, published by Life Science pp. 20-24 (2006). Based on the results, 40 persons estimated to be cedar- and Japanese cypress-pollen disease were selected as subjects. The subjects were divided into two groups, a test group ingesting lactosucrose (ingesting 3 g of lactosucrose every day) and a control group ingesting placebo, regarding with a score of clinical symptoms of the subjects. Then, “NYU-KA OLIGO 700”, a 76% (w/w)-solid content syrup, comprising lactosucrose, commercialized by Hayashibara Shoji Inc., Okayama, Japan, which comprises 71.5% (w/w) of lactosucrose, 13.7% (w/w) of sucrose, 7.5% (w/w) of lactose, and 7.3% (w/w) of other saccharides, on a dry solid basis, was repackaged into aluminum pillowcases with about 6 g/package (3 g of lactosucrose/package) and the resulting packages were distributed to the subjects of the lactosucrose-ingesting group. In the same manner, “CORN SUGAR A-33”, an about 75% (w/w)-solid content isomerized sugar syrup comprising sucrose, commercialized by Sanwa Cornstarch Co., Ltd., Nara, Japan, which comprises 33.5% (w/w) of sucrose, 33.7% (w/w) of glucose, and 29.2% (w/w) of fructose, on a dry solid basis, was repackaged into packages with about 6 g/package similarly as in the above and distributed to the subjects of the placebo-ingesting group. The ingestion was started at Jan. 16, 2007 (zero week), before the beginning of cedar-pollen season, and then subjects were allowed to ingest one package of the test substance at any time every day for 18 weeks. The methods for ingesting the test substance were not restricted and the subjects were permitted to ingest directly from the package or after mixing with other foods and beverages. The experiment was carried out with double blind test and the subjects were not restricted except for ingesting the test substance and were allowed to take medicines including an anti-allergic agent. For evaluating the suppression of allergic symptoms by ingesting the test substance, questionnaire survey was carried out to subjects about clinical symptoms of nose and eyes and difficulties on daily life once per week for 21 weeks, from one week before from starting the ingestion of the test substance to two weeks after of the end of the ingestion. The first questionnaire survey was carried out […]. Based on the respective result of the questionnaire of the group ingesting lactosucrose and the control group, the effects were evaluated by scores determined with regarding the suppressive effect on allergic symptoms of medicines such as an anti-allergic agent used during the test period. […] 9, 2007; the beginning of March; and the end of March; respectively, in the test area, the southern part of Okayama Prefecture. […] 27, 2007; and the end of April in the test area. Accordingly, the ingestion of the test substance in the experiment was started about three weeks before the cedar pollen season. […]

[1] = 3 g of lactosucrose every day, after the start of ingesting the test substance

OC[C@H]1O[C@@H](O[C@H]2[C@H](O)[C@@H](O)[C@@H](O[C@]3(CO)O[C@H](CO)[C@@H](O)[C@@H]3O)O[C@@H]2CO)[C@H](O)[C@@H](O)[C@H]1O [Lactosucrose, β-D-galactosyl-(1,4)-α-D-glucosyl-(1,2)-β-D-fructoside]
Generation of clinical symptoms and difficulties on daily life in comparison with the control group (3 g of lactosucrose every day (NYU-KA OLIGO 700), 18 weeks, human pollinosis subjects): delayed by one week | Score of clinical symptoms of nose compared with the control group (3 g of lactosucrose every day, 18 weeks, FIG. 1): kept lower value than those of the control group during four to 10 weeks | Score of clinical symptoms of eyes compared with the control group (3 g of lactosucrose every day, 18 weeks, FIG. 2): lower than those of the control group though the test period | Score of difficulties on daily life compared with the control group (3 g of lactosucrose every day, 18 weeks, FIG. 3): lower than those of the control group though the test period | Time at which the score of clinical symptoms of eyes reached a peak [1]: eight weeks | Time at which the score of clinical symptoms of nose reached a peak [1]: seven weeks | Time at which the score of difficulties on daily life reached a peak [1]: seven weeks
